Reference: the supplement of paper PMC10307832

Key:
Experiment in all cases: relative viability (nuclei count vs DMSO), 5 days (fraction); higher = more cells survive
[1] = compound: CC1=CC(=CC=C1)NC2=NC(=CS2)C3=CC=NC=C3 + COc1cccc2cc(-c3nc([C@H]4CC[C@H](C(=O)O)CC4)n4ncnc(N)c34)[nH]c12 [OSI-027] (partner 0.5 µM)
Method in brief: (§1)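 After 5 days of treatment, lung cancer cells in 1536-well plates were fixed and stained in a single step (final 0.05% Triton X-100, 1% formaldehyde, 1 ug/ml Hoechst) and their nuclei counted on 4× images. Treatment had been applied by pin tool the day after seeding as one drug alone or as a fixed anchor-drug dose with five library-drug doses (not always all listed) in √10 steps. Relative viability is the nuclei count of treated wells divided by that of vehicle wells, and values are medians of duplicate plates.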

[2] = compound: CC1=CC(=CC=C1)NC2=NC(=CS2)C3=CC=NC=C3 + C[C@]1(O)C[C@@H](c2nc(-c3ccc4ccc(-c5ccccc5)nc4c3)c3c(N)nccn32)C1 [Linsitinib] (partner 1 µM)
Method in brief: as §1

[3] = compound: CC1=CC(=CC=C1)NC2=NC(=CS2)C3=CC=NC=C3 + N=C(N)NC(=N)NCCc1ccccc1 [Phenformin] (partner 250 µM)
Method in brief: as §1

Masitinib + Luminespib = compound: Cc1ccc(NC(=O)c2ccc(CN3CCN(C)CC3)cc2)cc1Nc1nc(-c2cccnc2)cs1 [Masitinib] + CCNC(=O)c1noc(-c2cc(C(C)C)c(O)cc2O)c1-c1ccc(CN2CCOCC2)cc1 [Luminespib] (partner 0.01 µM)
Method in brief: as §1

Cell Line	relative viability ([1]; first compound 0.08 µM)	relative viability ([1]; first compound 0.253 µM)	relative viability ([1]; first compound 0.8 µM)	relative viability ([1]; first compound 2.53 µM)	relative viability ([1]; first compound 8 µM)	relative viability ([2]; first compound 0.08 µM)	relative viability ([2]; first compound 0.253 µM)	relative viability ([2]; first compound 0.8 µM)	relative viability ([2]; first compound 2.53 µM)	relative viability ([2]; first compound 8 µM)	relative viability ([3]; first compound 0.253 µM)	relative viability ([3]; first compound 0.8 µM)	relative viability ([3]; first compound 8 µM)	relative viability (Masitinib + Luminespib; first compound 0.01 µM)	relative viability (Masitinib + Luminespib; first compound 0.03162 µM)	relative viability (Masitinib + Luminespib; first compound 0.1 µM)	relative viability (Masitinib + Luminespib; first compound 0.3162 µM)	relative viability (Masitinib + Luminespib; first compound 1 µM)	relative viability ([3]; first compound 0.08 µM)	relative viability ([3]; first compound 2.53 µM)
LK-2	0.165	0.181	0.237	0.185	0.214	0.581	0.778	0.729	0.413	0.427	0.365	0.584	0.44	0.183	0.183	0.132	0.151	0.175	–	–
NCI-H1563	0.723	0.775	0.842	0.779	0.697	1.11	1.12	1.19	1.29	1.18	0.634	0.691	0.657	0.509	0.537	0.524	0.532	0.505	0.725	0.733
COR-L23	0.587	0.66	0.555	0.64	0.503	0.821	0.89	0.62	0.892	0.843	0.378	0.443	0.406	0.598	0.598	0.798	0.931	0.579	0.414	0.377
ABC-1	0.369	0.427	0.493	0.421	0.319	0.758	0.708	0.584	0.642	0.709	0.223	0.193	0.31	0.397	0.692	0.743	0.484	0.429	0.229	0.221
SW 900	0.443	0.539	0.549	0.356	0.355	–	–	–	–	–	0.446	0.673	0.532	0.165	0.156	0.163	0.158	0.185	0.555	0.461
PC-14	0.712	0.833	0.795	0.826	0.702	0.858	0.944	0.86	1.01	0.844	0.457	0.601	0.502	0.15	0.222	0.246	0.151	0.196	0.47	0.521
NCI-H1648	0.259	0.277	0.276	0.258	0.255	–	–	–	–	–	–	–	–	–	–	–	–	–	–	–
A549	–	–	–	–	–	0.486	0.684	0.619	0.532	0.562	0.179	0.15	0.235	–	–	–	–	–	0.179	0.169
A-427	0.378	0.522	0.523	0.397	0.48	1.16	1.03	1.09	–	1.12	0.28	0.355	0.244	–	1.1	1.13	0.814	1.18	0.355	0.326
NCI-H1915	0.598	0.61	0.602	0.575	0.587	1.1	1.08	1.05	1.09	0.989	0.352	0.371	0.372	–	0.815	–	0.938	0.896	0.38	0.372
LCLC-97TM1	0.413	0.43	0.546	0.513	0.692	–	–	0.212	0.207	0.168	0.414	0.456	0.483	–	0.777	0.857	0.946	0.857	0.424	0.456
NCI-H1734	0.481	0.554	0.654	0.7	0.618	0.828	0.981	0.869	0.835	0.719	0.353	0.399	0.38	0.194	0.195	0.188	0.187	0.172	0.401	0.456
LCLC-103H	0.389	0.448	0.422	0.462	0.342	0.942	0.967	1.01	1.24	1.03	0.308	0.327	0.27	0.727	0.932	1.04	0.748	1.03	0.284	0.309
NCI-H1703	–	–	–	–	–	0.733	0.632	0.64	0.732	0.555	–	–	–	–	–	–	–	–	–	–
ChaGo-K-1	0.43	0.459	0.588	0.394	0.485	–	–	–	–	–	0.439	0.5	0.464	0.681	0.48	0.635	0.524	0.569	0.445	0.409
Calu-6	–	–	–	–	–	0.765	0.934	0.871	0.879	0.756	–	–	–	–	–	–	–	–	–	–
HCC-366	0.723	0.744	0.959	0.833	0.461	0.454	0.593	0.501	0.563	0.399	0.601	0.576	0.505	–	–	–	–	–	0.635	0.607
NCI-H2170	0.733	0.646	0.583	0.537	0.651	–	–	–	–	–	0.436	0.431	0.397	0.645	0.689	1.02	0.631	1.02	0.396	0.4
NCI-H2342	0.623	0.588	0.65	0.5	0.607	–	–	–	–	–	0.582	0.603	0.568	0.775	0.79	0.707	0.727	0.791	0.483	0.518
EBC-1	–	–	–	–	–	0.621	0.698	0.757	0.686	0.786	–	–	–	–	–	–	–	–	–	–
NCI-H522	0.71	0.649	0.737	0.735	0.775	–	–	–	–	–	0.687	0.654	0.655	1.18	1.16	1.05	1.13	0.94	0.682	0.613
IA-LM	–	–	–	–	–	0.489	0.49	0.692	0.308	0.549	–	–	–	–	–	–	–	–	–	–
NCI-H1299	–	–	–	–	–	0.93	0.985	0.936	0.928	0.928	–	–	–	–	–	–	–	–	–	–
